Data as given in US20040265847A1, “Method for treating Alzheimer's disease” (priority 1991, published 2004).
Square brackets hold non-standard residues; d marks the D form. Peptide text beside a SMILES is read from it. * marks the point of attachment. Sta = CC(C)C[C@H](N)[C@@H](O)CC(=O)O; Isovaleryl = CC(C)CC(=O)*

Tests used:
[1] = dot-blot ^65Zn^2+ binding to synthetic peptides (putative zinc-binding domain of APP); details: for ability to bind ^65Zn^2+: 16 μg peptide dot-blotted
Experimental: 16 μg of the synthesized peptide […], representing residues 181-214 of APP695 (or residues 181-200), or 16 μg of control peptide, was dissolved in 200 μl of blocking buffer (50 mM Tris-HCl, 1 mM MnCl2 10 mM β-mercaptoethanol, 20% methanol, pH 7.4) and dot-blotted onto PVDF (Immobilon-P, Millipore, Befored, Mass.) which had been pre-wetted with methanol. The blot was then incubated for 30 mins at 20° C. with 100,000 CPM of ^65Zn^2+ in blocking buffer, in the presence or absence of various concentrations of competing unlabeled Zn^2+ or other divalent cations. After incubation the dot-blot was washed three times with 200 μl of blocking buffer without MnCl2, the dot was excised and placed in 10 ml of scintillant and assayed by β-counting.

[2] = test system: APP-degrading protease; test: Assay of APP-degrading protease (Zn^2+-enhanced degradation of plasma 130 kDa APP); type: biochemical, human
[3] = test system: human brain membrane-derived APP; test: trypsin digestion of human brain membrane-derived APP, Western blot with 22C11; type: biochemical
From the text: The proteolytic activity of trypsin (Boehringer, Mannheim) was studied to determine whether it was modulated by a range of doses of heparin (Sigma) and ZnCl2. […] Western blots for APP using the APP binding monoclonal antibody 22C11 were used to monitor the progression of the proteolytic reaction and to detect breakdown products.

[4] = test system: trypsin; test: tryptic activity on fluorogenic substrate Z-F-R-AMC; type: biochemical; details: range of doses
[5] = test system: PC12 cells; test: Effect of extracellular zinc on cultured PC12 cells (APP by Western blot); type: cell-based; details: 48 hr
Experimental: 10^6 PC12 cells were plated for 24 hr in the presence of Dulbecco's modified Eagle's medium (DMEM, N2) supplemented with 8% fetal calf serum (FCS). The medium was then removed and replaced with DMEM±2 to 50 μM ZnCl2 or another salt, and no FCS. Cells and media were harvested 48 hr later and aliquots of media, cell cytosol and membrane (following lysis and ultracentrifugation) were assayed for APP by Western blotting with mAb 22C11.

[6] = test system: human brain 130/110 kDa APP; test: ^65Zn binding to human brain 130/110 kDa APP (time course, competition, Scatchard); details: for ^65Zn label competed off APP (of Bmax): unlabelled metal ion at 20 μM; for shift of competition curve relative to the Zn^2+ competition curve: competition for ^65Zn binding
From the text: FIG. 4 is a graphical representation showing a time course analysis of ^65Zn binding to human brain 130/110 kDa APP. Amyloid protein precursor (APP) was purified according to the method in Moir et al. (1992). The preparation of purified 130 and 110 kDa APP was derived from human brain membrane extracts and contained the full-length precursor with carboxyl terminus intact but lacked the 17 residue signal peptide. The 130 and 110 kDa proteins were apparent in equal ratios on silver staining following polyacrylamide gel electrophoresis and were the only bands visible. The identity of these two proteins was confirmed by Western blots with monoclonal antibody 22C11 (which recognises an amino terminal epitope on APP), and by amino terminal sequencing. The protein concentration of the APP preparation was determined by amino acid analysis. Aliquots of APP (90 ng, =1.1 pmole, assuming the average amino acid formula weight of APP is =80 kDa) were incubated at 20° C. for the times indicated. Incubations (50 μl) were performed in 150 mM NaCl, 50 mM Tris-Hcl, pH 7.4 in the presence of 10^6 cpm of ^65Zn (175 nM). The incubation solution was then applied to a 1.1 ml bed volume Sephadex G25 (Pharmacia, Uppsala, Sweden) column pre-equilibrated with 150 mM NaCl, 50 mM Tris-HCl, pH 7.4 and allowed to settle before being desalted with 645 μl of the Equilibration buffer. […] The desalted protein was collected directly into counting tubes containing 10 ml aqueous counting scintillant. Less than two minutes was required to complete the desalting. The amount of ^65Zn bound to desalted APP was determined by counting the collected sample in a beta-counter set to the broadest channel. Counting was determined to be 51% efficient. The values shown are means±SD of n≧3 readings.
FIG. 5 is a graphical representation showing a competition analysis of ^65Zn binding to human brain 130/110 kDa APP. Aliquots of APP were incubated for 30 minutes with ^65Zn as in FIG. 4. The binding of the labelled Zn^2+ to APP was subjected to competition with unlabelled Zn^2+ in the form of the chloride salt. Data shown indicate the competition curves generated at pH 6.4 and 7.4. The binding of Zn^2+ to APP deteriorated at the lower pH (=45% of Bmax, pH 7.4). The values are means±SEM of n≧3 readings. The curves illustrated are typical of three experiments.
FIG. 6 is a graphical representation depicting a Scatchard analysis of ^65Zn binding to human brain 130/110 kDa APP.
Binding analysis was performed as follows: Aliquots of APP (90 ng, =1.1 pmole, assuming the average amino acid formula mass of APP is =80 kDa) were incubated at 20° C. Incubations (50 μl) were performed in 150 mM NaCl, 50 mM Tris-HCl, pH 7.4 in the presence of 10^6 CPM of ^65Zn (175 nM). The incubation solution was then applied to a 1.1 ml bed volume Sephadex G25 (Pharmacia, Uppsala, Sweden) column pre-equilibrated with 150 mM NaCl, 50 mM Tris-HCl, pH 7.4 and allowed to settle before being desalted with 645 μl of the equilibration buffer. […] The deslated protein was collected directly into counting tubes containing 10 ml aqueous counting scintillant (ACSII, Amersham). Less than two minutes was required to complete the desalting. The amount of ^65Zn bound to desalted APP was determined by counting the collected sample in a beta-counter set to the broadest channel. Counting was determined to be 51% efficient. The binding of the labelled Zn^2+ to APP was subjected to competition with unlabelled Zn^2+ and other metal chloride salts.

[7] = test system: human brain full-length APP; test: ^125I-APP binding to heparin-Sepharose; details: for effect on profile of ^125I-APP elution from heparin-Sepharose: Co^2+ at 75 μM
Experimental: 100 kDa human brian full-length APP was iodinated by the Chloramine-T method. Iodinated APP (^125I-APP) was then separated from labelling reagents by Sephacryl G25 chromatography.
The column was then washed with 6 ml buffer 1 and the APP eluted with aliquots of high-NaCl buffers.

[8] = young adult control preparation, two hours at 37° C., 20 μM ZnCl2

Chain of human brain membrane-derived APP (P05067 18-288 limits assumed): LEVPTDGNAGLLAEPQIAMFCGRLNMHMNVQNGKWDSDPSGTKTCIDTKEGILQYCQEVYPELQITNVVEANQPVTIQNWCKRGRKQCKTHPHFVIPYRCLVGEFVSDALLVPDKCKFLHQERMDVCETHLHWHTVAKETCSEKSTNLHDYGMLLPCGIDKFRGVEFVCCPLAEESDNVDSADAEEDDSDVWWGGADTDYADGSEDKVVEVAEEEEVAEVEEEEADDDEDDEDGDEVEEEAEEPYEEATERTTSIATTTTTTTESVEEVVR

residues 422-433: peptide representing another region of the APP molecule (VESLEQEAANER; UniProt P05067 439-450, looked up, fragment)
ability to bind ^65Zn^2+ [1]: unable to bind Zn^2+

CCN1C(=O)C=CC1=O [N-ethyl maleimide, N-ethylmaleimide]
influence on Zn^2+-enhanced APP proteolysis [2, 8]: Neither Al3Cl, the cysteine-protease inhibitor N-ethyl maleimide, nor the acid-protease inhibitor pepstatin A influenced the reaction

heparin [reference compound]
concentration at which protective effect saturated [3]: 10 µM | heparin concentration causing marked reduction in rate and degree of brain APP degradation by trypsin ([3]; trypsin 1:64, one hour at 37° C.): 100 nM | effect on tryptic activity [4]: left tryptic activity unaltered | influence on Zn^2+-enhanced APP proteolysis [2, 8]: completely inhibited

residues 645-655: peptide representing another region of the APP molecule (KTEEISEVKMD; UniProt P05067 662-672, looked up, fragment)
ability to bind ^65Zn^2+ [1]: unable to bind Zn^2+

GVEFVCCPLAEESDNVDSADAEEDDSDVWWGGAD [residues 181-214 of APP]
ability to bind ^65Zn^2+ [1]: able to bind Zn^2+ in a saturable and specific manner

residues 181-200 of APP: synthetic peptide representing about residues 181-200 of APP (SADAEEDDSDVWWGGADTDY; UniProt P05067 198-217, looked up, fragment)
ability to bind ^65Zn^2+ [1]: bind zinc in a specific and saturable manner

carboxyamidomethylated 181-214 peptide: the 181-214 peptide where the cysteines had been modified by carboxyamidomethylation
amount of ^65Zn^2+ binding relative to same quantity of 181-214 peptide [1]: approximately 15%

[Cl][Fe][Cl] [FeCl2, reference compound]
effect on APP released into the media compared with zinc [5]: had a similar effect

residues 189-220 of APP695: synthetic peptide lacking the cysteine residues at positions 186/187 (LAEESDNVDSADAEEDDSDVWWGGADTDYADG; APP695; UniProt P05067 189-220, looked up, fragment)
amount of ^65Zn^2+ binding relative to same quantity of 181-214 peptide [1]: approximately 15%

[Cu+2] [Cu^2+, reference compound]
^65Zn label competed off APP (of Bmax) [6]: 60%

Insulin A chain: control peptide
ability to bind ^65Zn^2+ [1]: unable to bind Zn^2+

O=C(O)CN(CCN(CC(=O)O)CC(=O)O)CC(=O)O [EDTA, ethylene diamine tetra acetic acid]
influence on Zn^2+-enhanced APP proteolysis [2, 8]: completely inhibited

[Cl-].[Cl-].[Mg+2] [Mg^2+, reference compound]
effect on profile of ^125I-APP elution from heparin-Sepharose [7]: did not alter the profile of ^125I-APP elution | shift of competition curve relative to the Zn^2+ competition curve [6]: shifted greater than two log units to the right

CC(C)CC(=O)N[C@H](C(=O)N[C@H](C(=O)N[C@@H](CC(C)C)[C@@H](O)CC(=O)N[C@@H](C)C(=O)N[C@@H](CC(C)C)[C@@H](O)CC(=O)O)C(C)C)C(C)C [pepstatin A] (Isovaleryl-VV[Sta]A[Sta]-OH)
influence on Zn^2+-enhanced APP proteolysis ([2]; […]): Neither Al3Cl, the cysteine-protease inhibitor N-ethyl maleimide, nor the acid-protease inhibitor pepstatin A influenced the reaction

[Co+2] [Co^2+, reference compound]
effect on profile of ^125I-APP elution from heparin-Sepharose [7]: increased the recovery of ^125I-APP in the 100-500 and 500-2000 mM NaCl fractions | ^65Zn label competed off APP (of Bmax) [6]: 70%

[Cl][Al]([Cl])[Cl] [Al^3+]
increase in ^125I-APP recovery in the 500-2000 mM NaCl fraction [7]: approximately 4.5 fold | effect on profile of ^125I-APP elution from heparin-Sepharose [7]: decreased the recovery of ^125I-APP except in the 500-2000 mM NaCl fraction | ^65Zn label competed off APP (of Bmax) [6]: 60%

[Ca+2].[Cl-].[Cl-] [Ca^2+, reference compound]
effect on profile of ^125I-APP elution from heparin-Sepharose [7]: did not alter the profile of ^125I-APP elution | shift of competition curve relative to the Zn^2+ competition curve [6]: shifted greater than two log units to the right

[Cl][Cu] [cuprous chloride, reference compound]
effect on APP released into the media compared with zinc [5]: far smaller stimulatory effects

residues 581-601: peptide representing another region of the APP molecule (TETKTTVELLPVNGEFSLDDL; UniProt P05067 598-618, looked up, fragment)
ability to bind ^65Zn^2+ [1]: unable to bind Zn^2+

aprotinin
influence on Zn^2+-enhanced APP proteolysis [2, 8]: completely inhibited

renin
ability to bind ^65Zn^2+ [1]: unable to bind Zn^2+

[Cl][Al]([Cl])[Cl] [Al3Cl, reference compound]
effect on APP released into the media compared with zinc [5]: far smaller stimulatory effects | influence on Zn^2+-enhanced APP proteolysis [2, 8]: Neither Al3Cl, the cysteine-protease inhibitor N-ethyl maleimide, nor the acid-protease inhibitor pepstatin A influenced the reaction

Insulin B chain: positive control
ability to bind ^65Zn^2+ [1]: bound ^65Zn^2+

B1: soya bean trypsin inhibitor (protein, UniProt P01070 25-205, looked up)
Trypsin inhibitor A: DFVLDNEGNPLENGGTYYILSDITAFGGIRAAPTGNERCPLTVVQSRNELDKGIGTIISSPYRIRFIAEGHPLSLKFDSFAVIMLCVGIPTEWSVVEDLPEGPAVKIGENKDAMDGWFRLERVSDDEFNNYKLVFCPQQAEDDKCGDIGISIDHDDGTRRLVVSKNKPLVVQFQKLDKESL
influence on Zn^2+-enhanced APP proteolysis [2, 8]: completely inhibited

B2: α1-antichymotrypsin (protein, UniProt P01011 24-423, looked up)
Alpha-1-antichymotrypsin: HPNSPLDEENLTQENQDRGTHVDLGLASANVDFAFSLYKQLVLKAPDKNVIFSPLSISTALAFLSLGAHNTTLTEILKGLKFNLTETSEAEIHQSFQHLLRTLNQSSDELQLSMGNAMFVKEQLSLLDRFTEDAKRLYGSEAFATDFQDSAAAKKLINDYVKNGTRGKITDLIKDLDSQTMMVLVNYIFFKAKWEMPFDPQDTHQSRFYLSKKKWVMVPMMSLHHLTIPYFRDEELSCTVVELKYTGNASALFILPDQDKMEEVEAMLLPETLKRWRDSLEFREIGELYLPKFSISRDYNLNDILLQLGIEEAFTSKADLSGITGARNLAVSQVVHKAVLDVFEEGTEASAATAVKITLLSALVETRTIVRFNRPFLMIIVPTDTQNIFFMSKVTNPKQA
influence on Zn^2+-enhanced APP proteolysis [2, 8]: incompletely inhibited
